# Reference: PubChem BioAssay (NCI)
#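 Where inhibition never reached the appropriate level, the endpoint shown equals the highest concentration tested. Otherwise, values were interpolated linearly from a five-concentration, 48-hour dose response in 96-well plates. At the GI50, growth is halved. TGI is the concentration that stops growth completely.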
# Experiments:
# Experiment in all cases: NCI tumour cell line growth inhibition, 48 h
# SF-268 CNS = system: SF-268 CNS
# OVCAR-5 ovarian = system: OVCAR-5 ovarian
# LOX IMVI melanoma = system: LOX IMVI melanoma
# SN12C renal = system: SN12C renal
# SF-295 CNS = system: SF-295 CNS
# HL-60(TB) leukemia = system: HL-60(TB) leukemia
# COLO 205 colon = system: COLO 205 colon
# UO-31 renal = system: UO-31 renal
# NCI-H23 lung = system: NCI-H23 lung
# MDA-MB-231 breast = system: MDA-MB-231 breast
# NCI-H522 lung = system: NCI-H522 lung
# SNB-19 CNS = system: SNB-19 CNS
# RPMI-8226 leukemia = system: RPMI-8226 leukemia
# HCC-2998 colon = system: HCC-2998 colon
# SNB-75 CNS = system: SNB-75 CNS
# A498 renal = system: A498 renal
# SR leukemia = system: SR leukemia
# HT29 colon = system: HT29 colon
# OVCAR-4 ovarian = system: OVCAR-4 ovarian
# BT-549 breast = system: BT-549 breast
# TK-10 renal = system: TK-10 renal
# NCI/ADR-RES ovarian = system: NCI/ADR-RES ovarian
# ACHN renal = system: ACHN renal
# SK-MEL-5 melanoma = system: SK-MEL-5 melanoma
# T-47D breast = system: T-47D breast
# MDA-MB-435 = system: MDA-MB-435
# RXF 393 renal = system: RXF 393 renal
# M14 melanoma = system: M14 melanoma
# KM12 colon = system: KM12 colon
# MCF7 breast = system: MCF7 breast
# 786-0 renal = system: 786-0 renal
# OVCAR-8 ovarian = system: OVCAR-8 ovarian
# OVCAR-3 ovarian = system: OVCAR-3 ovarian
# UACC-257 melanoma = system: UACC-257 melanoma
# SK-OV-3 ovarian = system: SK-OV-3 ovarian
# PC-3 prostate = system: PC-3 prostate
# HOP-62 NSCLC = system: HOP-62 NSCLC
# DU-145 prostate = system: DU-145 prostate
# SK-MEL-2 melanoma = system: SK-MEL-2 melanoma
# MOLT-4 leukemia = system: MOLT-4 leukemia
# MALME-3M melanoma = system: MALME-3M melanoma
# NCI-H226 lung = system: NCI-H226 lung
# K-562 leukemia = system: K-562 leukemia
# EKVX NSCLC = system: EKVX NSCLC
# SW-620 colon = system: SW-620 colon
# IGROV1 ovarian = system: IGROV1 ovarian
# CAKI-1 renal = system: CAKI-1 renal
# SF-539 CNS = system: SF-539 CNS
# UACC-62 melanoma = system: UACC-62 melanoma
# HCT-116 colon = system: HCT-116 colon
# SK-MEL-28 melanoma = system: SK-MEL-28 melanoma
# CCRF-CEM leukemia = system: CCRF-CEM leukemia
# U251 CNS = system: U251 CNS
# NCI-H460 lung = system: NCI-H460 lung
# HCT-15 colon = system: HCT-15 colon
# A549 NSCLC = system: A549 NSCLC
structure (smiles),measurement,setting,value
Cc1cc(N2CCOCC2)nc(NCc2cc(Nc3ccnc4cc(Cl)ccc34)ccc2F)n1,GI50,SF-268 CNS,1420 nM
same,TGI,SF-268 CNS,3020 nM
same,GI50,OVCAR-5 ovarian,1620 nM
same,TGI,OVCAR-5 ovarian,3160 nM
same,GI50,LOX IMVI melanoma,1750 nM
same,TGI,LOX IMVI melanoma,3270 nM
same,GI50,SN12C renal,1830 nM
same,TGI,SN12C renal,3660 nM
same,GI50,SF-295 CNS,1590 nM
same,TGI,SF-295 CNS,3030 nM
same,GI50,HL-60(TB) leukemia,2310 nM
same,TGI,HL-60(TB) leukemia,4820 nM
same,GI50,COLO 205 colon,665 nM
same,TGI,COLO 205 colon,2150 nM
same,GI50,UO-31 renal,1570 nM
same,TGI,UO-31 renal,3000 nM
same,GI50,NCI-H23 lung,1860 nM
same,TGI,NCI-H23 lung,4200 nM
same,GI50,MDA-MB-231 breast,1880 nM
same,TGI,MDA-MB-231 breast,3630 nM
same,GI50,NCI-H522 lung,1950 nM
same,TGI,NCI-H522 lung,3850 nM
same,GI50,SNB-19 CNS,1650 nM
same,TGI,SNB-19 CNS,3450 nM
same,GI50,RPMI-8226 leukemia,2320 nM
same,TGI,RPMI-8226 leukemia,5960 nM
same,GI50,HCC-2998 colon,1670 nM
same,TGI,HCC-2998 colon,3260 nM
same,GI50,SNB-75 CNS,1190 nM
same,TGI,SNB-75 CNS,2640 nM
same,GI50,A498 renal,894 nM
same,TGI,A498 renal,2250 nM
same,GI50,SR leukemia,1610 nM
same,TGI,SR leukemia,3820 nM
same,GI50,HT29 colon,834 nM
same,TGI,HT29 colon,2240 nM
same,GI50,OVCAR-4 ovarian,1320 nM
same,TGI,OVCAR-4 ovarian,3690 nM
same,GI50,BT-549 breast,1720 nM
same,TGI,BT-549 breast,3530 nM
same,GI50,TK-10 renal,1840 nM
same,TGI,TK-10 renal,3400 nM
same,GI50,NCI/ADR-RES ovarian,1730 nM
same,TGI,NCI/ADR-RES ovarian,3310 nM
same,GI50,ACHN renal,1830 nM
same,TGI,ACHN renal,3330 nM
same,GI50,SK-MEL-5 melanoma,1560 nM
same,TGI,SK-MEL-5 melanoma,2940 nM
same,GI50,T-47D breast,1380 nM
same,TGI,T-47D breast,3410 nM
same,GI50,MDA-MB-435,1560 nM
same,TGI,MDA-MB-435,2920 nM
same,GI50,RXF 393 renal,1630 nM
same,TGI,RXF 393 renal,3370 nM
same,GI50,M14 melanoma,1860 nM
same,TGI,M14 melanoma,3570 nM
same,GI50,KM12 colon,1690 nM
same,TGI,KM12 colon,3210 nM
same,GI50,MCF7 breast,348 nM
same,TGI,MCF7 breast,1500 nM
same,GI50,786-0 renal,1830 nM
same,TGI,786-0 renal,3350 nM
same,GI50,OVCAR-8 ovarian,1860 nM
same,TGI,OVCAR-8 ovarian,3580 nM
same,GI50,OVCAR-3 ovarian,1720 nM
same,TGI,OVCAR-3 ovarian,3160 nM
same,GI50,UACC-257 melanoma,1850 nM
same,TGI,UACC-257 melanoma,3540 nM
same,GI50,SK-OV-3 ovarian,1920 nM
same,TGI,SK-OV-3 ovarian,3480 nM
same,GI50,PC-3 prostate,1800 nM
same,TGI,PC-3 prostate,3480 nM
same,GI50,HOP-62 NSCLC,1510 nM
same,TGI,HOP-62 NSCLC,2960 nM
same,GI50,DU-145 prostate,1600 nM
same,TGI,DU-145 prostate,3080 nM
same,GI50,SK-MEL-2 melanoma,1950 nM
same,TGI,SK-MEL-2 melanoma,3610 nM
same,GI50,MOLT-4 leukemia,1400 nM
same,TGI,MOLT-4 leukemia,3660 nM
same,GI50,MALME-3M melanoma,1980 nM
same,TGI,MALME-3M melanoma,3680 nM
same,GI50,NCI-H226 lung,2060 nM
same,TGI,NCI-H226 lung,4310 nM
same,GI50,K-562 leukemia,1780 nM
same,TGI,K-562 leukemia,4490 nM
same,GI50,EKVX NSCLC,1520 nM
same,TGI,EKVX NSCLC,3910 nM
same,GI50,SW-620 colon,1630 nM
same,TGI,SW-620 colon,3280 nM
same,GI50,IGROV1 ovarian,1640 nM
same,TGI,IGROV1 ovarian,3920 nM
same,GI50,CAKI-1 renal,1630 nM
same,TGI,CAKI-1 renal,3140 nM
same,GI50,SF-539 CNS,1790 nM
same,TGI,SF-539 CNS,3280 nM
same,GI50,UACC-62 melanoma,1750 nM
same,TGI,UACC-62 melanoma,3350 nM
same,GI50,HCT-116 colon,1510 nM
same,TGI,HCT-116 colon,3080 nM
same,GI50,SK-MEL-28 melanoma,1830 nM
same,TGI,SK-MEL-28 melanoma,3400 nM
same,GI50,CCRF-CEM leukemia,1460 nM
same,TGI,CCRF-CEM leukemia,4790 nM
same,GI50,U251 CNS,1630 nM
same,TGI,U251 CNS,3120 nM
same,GI50,NCI-H460 lung,1830 nM
same,TGI,NCI-H460 lung,3570 nM
same,GI50,HCT-15 colon,1700 nM
same,TGI,HCT-15 colon,3300 nM
same,GI50,A549 NSCLC,1870 nM
same,TGI,A549 NSCLC,3600 nM
